Assay: sensory evaluation of purified components for salty taste enhancing effect
Details: components purified from Jinhua dry-cured ham crude peptides (Sephadex G-15, DEAE anion column); sensory evaluation with electronic tongue-assisted analysis
Method: The crude polypeptides obtained in S2 were dissolved in pure water, filtered by 0.22 μm of aqueous phase membrane, and then loaded onto a Sephadex G-15 gel filtration column (3.0×200 cm) for purification at 25° C. Specific chromatographic parameters: the sample mass concentration was 40 mg/mL; the injection volume was 200 μL; the eluent was 0.01 M of hydrochloric acid buffer solution at a flow rate of 0.5 mL/min, the primary UV ultraviolet detection wavelength was 214 nm, and the secondary UV ultraviolet detection wavelength was 250 nm. All purified components were subject to a sensory evaluation according to their respective chromatographic peaks. […]

With Asp-Leu [Asp-Leu (DL)] as the substance, how does the “salty taste enhancing effect” value read?
Its value is “optimal salty taste enhancing effect”.
